Values after ≈ are worked out from the molar mass of the structure shown. Bridge positions count the residues as written; N and C are the ends. Square brackets hold non-standard residues; d marks the D form. Peptide text beside a SMILES is read from it. * marks the point of attachment. Heptanoyl(6-Me) = CC(C)CCCCC(=O)*; X1 = CC[C@H](C)CCCCC(=O)*; dDab = NCC[C@@H](N)C(=O)O; Orn = NCCC[C@H](N)C(=O)O; Dab = NCC[C@H](N)C(=O)O; Dap = NC[C@H](N)C(=O)O
Columns and labels:
Escherichia coli [1] = test: Antibacterial activity against Escherichia coli ATCC BAA-2523 assessed as inhibition of bacterial growth incubated for 16 to 20 hrs by CLSI protocol based broth microdilution method; assay type: functional; conditions: time 16-20 hrs
Escherichia coli [2] = test: Antibacterial activity against carbapenem-resistant Escherichia coli ATCC BAA-2340 assessed as inhibition of bacterial growth incubated for 16 to 20 hrs by CLSI protocol based broth microdilution method; assay type: functional; conditions: time 16-20 hrs
Klebsiella pneumoniae [3] = test: Antibacterial activity against carbapenem-resistant Klebsiella pneumoniae clinical isolate KPN+19-15 assessed as inhibition of bacterial growth incubated for 16 to 20 hrs by CLSI protocol based broth microdilution method; assay type: functional; conditions: time 16-20 hrs
Klebsiella pneumoniae [4] = test: Antibacterial activity against carbapenem-resistant Klebsiella pneumoniae ATCC BAA-1705 assessed as inhibition of bacterial growth incubated for 16 to 20 hrs by CLSI protocol based broth microdilution method; assay type: functional; conditions: time 16-20 hrs
Pseudomonas aeruginosa [5] = test: Antibacterial activity against carbapenem-resistant Pseudomonas aeruginosa clinical isolate 19-3 assessed as inhibition of bacterial growth incubated for 16 to 20 hrs by CLSI protocol based broth microdilution method; assay type: functional; conditions: time 16-20 hrs
Pseudomonas aeruginosa [6] = test: Antibacterial activity against Pseudomonas aeruginosa ATCC 27853 assessed as inhibition of bacterial growth incubated for 16 to 20 hrs by CLSI protocol based broth microdilution method; assay type: functional; conditions: time 16-20 hrs
Acinetobacter baumannii [7] = test: Antibacterial activity against carbapenem-sensitive Acinetobacter baumannii clinical isolate 19-1 assessed as inhibition of bacterial growth incubated for 16 to 20 hrs by CLSI protocol based broth microdilution method; assay type: functional; conditions: time 16-20 hrs
Acinetobacter baumannii [8] = test: Antibacterial activity against Acinetobacter baumannii NCTC 13304 (OXA-27) assessed as inhibition of bacterial growth incubated for 16 to 20 hrs by CLSI protocol based broth microdilution method; assay type: functional; conditions: time 16-20 hrs
[9] = Renal cytotoxicity against HK-2 cells incubated for 72 hrs by CCK8 assay; assay type: toxicity, cell-based; conditions: human

SMILES | MIC (Escherichia coli [1]) | MIC (Escherichia coli [2]) | MIC (Klebsiella pneumoniae [3]) | MIC (Klebsiella pneumoniae [4]) | MIC (Pseudomonas aeruginosa [5]) | MIC (Pseudomonas aeruginosa [6]) | MIC (Acinetobacter baumannii [7]) | MIC (Acinetobacter baumannii [8]) | IC50 at 72 h [9]
CC(C)CCCCC(=O)N[C@@H](CCN)C(=O)N[C@H](C(=O)N[C@H](CO)C(=O)N[C@H]1CCNC(=O)[C@H]([C@@H](C)O)NC(=O)[C@H](CCCN)NC(=O)[C@H](CCN)NC(=O)[C@H]([C@@H](C)O)NC(=O)[C@@H](Cc2ccccc2)NC(=O)[C@H](CCN)NC1=O)[C@@H](C)O ({Heptanoyl(6-Me)}-[Dab]T[dS][Dab][Dab][dF]T[Dab][Orn]T; lactam 4-C) | 0.25 µg/mL (≈ 0.212 µM) | 0.25 µg/mL (≈ 0.212 µM) | 0.5 µg/mL (≈ 0.424 µM) | 1 µg/mL (≈ 0.849 µM) | > 64 µg/mL | > 64 µg/mL | 8 µg/mL (≈ 6.79 µM) | 8 µg/mL (≈ 6.79 µM) | > 500 µg/mL
CC(C)CCCCC(=O)N[C@@H](CCN)C(=O)N[C@H](C(=O)N[C@H](CO)C(=O)N[C@H]1CCNC(=O)[C@H]([C@@H](C)O)NC(=O)[C@H](CCN)NC(=O)[C@H](CCN)NC(=O)[C@H](CC(C)C)NC(=O)[C@H](Cc2ccccc2)NC(=O)[C@H](CCN)NC1=O)[C@@H](C)O | 0.06 µg/mL (≈ 0.051 µM) | ≤ 0.03 µg/mL | ≤ 0.03 µg/mL | 0.125 µg/mL (≈ 0.106 µM) | 2 µg/mL (≈ 1.7 µM) | 1 µg/mL (≈ 0.85 µM) | ≤ 0.03 µg/mL | ≤ 0.03 µg/mL | > 500 µg/mL
C[C@@H](O)[C@@H]1NC(=O)[C@H](CCN)NC(=O)[C@H](CCN)NC(=O)[C@H]([C@@H](C)O)NC(=O)[C@H](Cc2ccccc2)NC(=O)[C@H](CCN)NC(=O)[C@@H](NC(=O)[C@@H](CO)NC(=O)[C@@H](NC(=O)[C@H](CCN)NC(=O)CCCCCCC(=O)O)[C@@H](C)O)CCNC1=O | ≤ 0.03 µg/mL | ≤ 0.03 µg/mL | ≤ 0.03 µg/mL | 0.06 µg/mL (≈ 0.0502 µM) | 4 µg/mL (≈ 3.35 µM) | 4 µg/mL (≈ 3.35 µM) | 0.06 µg/mL (≈ 0.0502 µM) | ≤ 0.03 µg/mL | > 500 µg/mL
CC(C)CCCCC(=O)N[C@@H](CCN)C(=O)N[C@H](C(=O)N[C@@H](CO)C(=O)N[C@H]1CCNC(=O)[C@H]([C@@H](C)O)NC(=O)[C@H](CCN)NC(=O)[C@H](CCN)NC(=O)[C@H]([C@@H](C)O)NC(=O)[C@@H](CC(C)C)NC(=O)[C@H](CCN)NC1=O)[C@@H](C)O | 2 µg/mL (≈ 1.77 µM) | 2 µg/mL (≈ 1.77 µM) | 4 µg/mL (≈ 3.54 µM) | 4 µg/mL (≈ 3.54 µM) | 64 µg/mL (≈ 56.6 µM) | > 64 µg/mL | 8 µg/mL (≈ 7.08 µM) | 8 µg/mL (≈ 7.08 µM) | > 500 µg/mL
CC(C)CCCCC(=O)N[C@@H](CCN)C(=O)N[C@H](C(=O)N[C@@H](CCCCN)C(=O)N[C@H]1CCNC(=O)[C@H]([C@@H](C)O)NC(=O)[C@H](CCN)NC(=O)[C@H](CCN)NC(=O)[C@H]([C@@H](C)O)NC(=O)[C@@H](Cc2ccccc2)NC(=O)[C@H](CCN)NC1=O)[C@@H](C)O | 0.25 µg/mL (≈ 0.207 µM) | 0.25 µg/mL (≈ 0.207 µM) | 0.25 µg/mL (≈ 0.207 µM) | 0.25 µg/mL (≈ 0.207 µM) | 4 µg/mL (≈ 3.32 µM) | > 64 µg/mL | 2 µg/mL (≈ 1.66 µM) | 1 µg/mL (≈ 0.83 µM) | > 500 µg/mL
CC(C)CCCCC(=O)N[C@@H](CCN)C(=O)N[C@H](C(=O)N[C@H](CO)C(=O)N[C@H]1CCNC(=O)[C@H]([C@@H](C)O)NC(=O)[C@H](CCN)NC(=O)[C@H](CCCN)NC(=O)[C@H]([C@@H](C)O)NC(=O)[C@@H](Cc2ccccc2)NC(=O)[C@H](CCN)NC1=O)[C@@H](C)O ({Heptanoyl(6-Me)}-[Dab]T[dS][Dab][Dab][dF]T[Orn][Dab]T; lactam 4-C) | 0.125 µg/mL (≈ 0.106 µM) | 0.06 µg/mL (≈ 0.0509 µM) | 0.125 µg/mL (≈ 0.106 µM) | 0.25 µg/mL (≈ 0.212 µM) | 8 µg/mL (≈ 6.79 µM) | 4 µg/mL (≈ 3.39 µM) | 0.125 µg/mL (≈ 0.106 µM) | 0.125 µg/mL (≈ 0.106 µM) | > 500 µg/mL
CC(C)CCCCC(=O)N[C@@H](CN)C(=O)N[C@H](C(=O)N[C@H](CO)C(=O)N[C@H]1CCNC(=O)[C@H]([C@@H](C)O)NC(=O)[C@H](CCN)NC(=O)[C@H](CCN)NC(=O)[C@H]([C@@H](C)O)NC(=O)[C@@H](Cc2ccccc2)NC(=O)[C@H](CCN)NC1=O)[C@@H](C)O ({Heptanoyl(6-Me)}-[Dap]T[dS][Dab][Dab][dF]T[Dab][Dab]T; lactam 4-C) | ≤ 0.03 µg/mL | ≤ 0.03 µg/mL | 0.5 µg/mL (≈ 0.435 µM) | 0.25 µg/mL (≈ 0.217 µM) | 4 µg/mL (≈ 3.48 µM) | 64 µg/mL (≈ 55.6 µM) | 0.25 µg/mL (≈ 0.217 µM) | 0.25 µg/mL (≈ 0.217 µM) | > 500 µg/mL
CC(C)CCCCC(=O)N[C@@H](CCN)C(=O)N[C@H](C(=O)N[C@@H](CCCN)C(=O)N[C@H]1CCNC(=O)[C@H]([C@@H](C)O)NC(=O)[C@H](CCN)NC(=O)[C@H](CCN)NC(=O)[C@H]([C@@H](C)O)NC(=O)[C@@H](Cc2ccccc2)NC(=O)[C@H](CCN)NC1=O)[C@@H](C)O ({Heptanoyl(6-Me)}-[Dab]T[Orn][Dab][Dab][dF]T[Dab][Dab]T; lactam 4-C) | ≤ 0.03 µg/mL | ≤ 0.03 µg/mL | ≤ 0.03 µg/mL | ≤ 0.03 µg/mL | 0.25 µg/mL (≈ 0.21 µM) | ≤ 0.03 µg/mL | 0.125 µg/mL (≈ 0.105 µM) | 0.06 µg/mL (≈ 0.0504 µM) | > 500 µg/mL
CC(C)CCCCC(=O)N[C@@H](CCN)C(=O)N[C@H](C(=O)N[C@H](CCN)C(=O)N[C@H]1CCNC(=O)[C@H]([C@@H](C)O)NC(=O)[C@H](CCN)NC(=O)[C@H](CCN)NC(=O)[C@H]([C@@H](C)O)NC(=O)[C@@H](Cc2ccccc2)NC(=O)[C@H](CCN)NC1=O)[C@@H](C)O ({Heptanoyl(6-Me)}-[Dab]T[dDab][Dab][Dab][dF]T[Dab][Dab]T; lactam 4-C) | ≤ 0.03 µg/mL | ≤ 0.03 µg/mL | ≤ 0.03 µg/mL | 0.125 µg/mL (≈ 0.106 µM) | 0.5 µg/mL (≈ 0.425 µM) | 0.5 µg/mL (≈ 0.425 µM) | 0.06 µg/mL (≈ 0.051 µM) | ≤ 0.03 µg/mL | > 500 µg/mL
CC(C)CCCCC(=O)N[C@@H](CCN)C(=O)N[C@H](C(=O)N[C@H](CCCCN)C(=O)N[C@H]1CCNC(=O)[C@H]([C@@H](C)O)NC(=O)[C@H](CCN)NC(=O)[C@H](CCN)NC(=O)[C@H]([C@@H](C)O)NC(=O)[C@@H](Cc2ccccc2)NC(=O)[C@H](CCN)NC1=O)[C@@H](C)O | 0.125 µg/mL (≈ 0.104 µM) | 1 µg/mL (≈ 0.83 µM) | 0.25 µg/mL (≈ 0.207 µM) | 0.125 µg/mL (≈ 0.104 µM) | 4 µg/mL (≈ 3.32 µM) | 32 µg/mL (≈ 26.5 µM) | 0.5 µg/mL (≈ 0.415 µM) | 0.5 µg/mL (≈ 0.415 µM) | > 500 µg/mL
CC[C@H](C)CCCCC(=O)N[C@@H](CCN)C(=O)N[C@H](C(=O)N[C@H](CCN)C(=O)N[C@H]1CCNC(=O)[C@H]([C@@H](C)O)NC(=O)[C@H](CCN)NC(=O)[C@H](CCN)NC(=O)[C@H]([C@@H](C)O)NC(=O)[C@@H](Cc2ccccc2)NC(=O)[C@H](CCN)NC1=O)[C@@H](C)O (X1-[Dab]T[dDab][Dab][Dab][dF]T[Dab][Dab]T; lactam 4-C) | ≤ 0.03 µg/mL | ≤ 0.03 µg/mL | ≤ 0.03 µg/mL | ≤ 0.03 µg/mL | 1 µg/mL (≈ 0.839 µM) | 1 µg/mL (≈ 0.839 µM) | ≤ 0.03 µg/mL | ≤ 0.03 µg/mL | 371 µg/mL (≈ 311 µM)
CC(C)CCCCC(=O)N[C@@H](CCN)C(=O)N[C@H](C(=O)N[C@H](CO)C(=O)N[C@H]1CCNC(=O)[C@H]([C@@H](C)O)NC(=O)[C@H](CCN)NC(=O)[C@H](CCN)NC(=O)[C@H]([C@@H](C)O)NC(=O)[C@@H](Cc2ccccc2)NC(=O)[C@H](CN)NC1=O)[C@@H](C)O ({Heptanoyl(6-Me)}-[Dab]T[dS][Dab][Dap][dF]T[Dab][Dab]T; lactam 4-C) | 0.06 µg/mL (≈ 0.0522 µM) | 0.06 µg/mL (≈ 0.0522 µM) | 0.06 µg/mL (≈ 0.0522 µM) | 0.25 µg/mL (≈ 0.217 µM) | 64 µg/mL (≈ 55.6 µM) | > 64 µg/mL | 0.25 µg/mL (≈ 0.217 µM) | 0.25 µg/mL (≈ 0.217 µM) | > 500 µg/mL

Source: ChEMBL document CHEMBL6078630, “Design, synthesis, and bioactivity investigation of novel cyclic lipopeptide antibiotics targeting top-priority multidrug-resistant gram-negative bacteria” (Eur J Med Chem, 2024)
